Structures are written as SMILES. Bounds are passed on as bounds.

The subject of this assay is K562. The experiment in a line: In vitro antiproliferative activity was measured on human leukemia K562 cells. The class given is functional, cell-based.
A word on the IC50: it is the concentration at which inhibition is half-maximal. A low value points to inhibition by little substance. Molecule `CCCCCC(=O)/C=C/C1[C@H](O)C[C@H](O)[C@@H]1C/C=C\CCCC(=O)OC` (stereo not given in full) yielded an IC50 of 61 µM.

`CCCCC[C@H](O)/C=C/C1[C@H](O)C[C@H](O)[C@@H]1C/C=C\CCCC(=O)OC` (stereo not given in full) had an IC50 of 99 µM.

`CCCCCC(=O)/C=C/[C@H]1[C@H](O)CC(=O)[C@@H]1C/C=C\CCCC(=O)OC`: inhibition was half-maximal at 28 µM (IC50).

`CCCCCC(=O)/C=C/[C@]1(O)C[C@@H](O)C=C1C/C=C\CCCC(=O)OC` came in with an IC50 of 20 µM.

Regarding `CCCCC[C@H](O)/C=C/C1[C@H](O)CC(=O)[C@@H]1C/C=C\CCCC(=O)OC` (stereo not given in full), the IC50 worked out at 41 µM.

Consider `CCCCCC(=O)/C=C/[C@]1(O)CC(=O)C=C1C/C=C\CCCC(=O)OC`, for which the half-maximal inhibitory concentration (IC50) is 6.6 µM.

For `CCCCC[C@H](O)/C=C/[C@H]1[C@H](O)CC(=O)[C@@H]1C/C=C\CCCC(=O)O` [DINOPROSTONE], 63 µM corresponded to half-maximal inhibition (IC50).

On to `CCCCC[C@H](O)/C=C/[C@]1(O)C[C@@H](O)C=C1C/C=C\CCCC(=O)OC`, for which the IC50 came to 201 µM.

Molecule `CCCCCC(=O)/C=C/C1[C@H](O)C[C@H](O)[C@@H]1C/C=C\CCCC(=O)O` (stereo not given in full) showed an IC50 of 362 µM.

`CCCCC[C@H](O)/C=C/[C@@H]1[C@@H](C/C=C\CCCC(=O)O)[C@@H](O)C[C@H]1O` [DINOPROST] showed an IC50 greater than 700 µM.

The values above are taken from ChEMBL document CHEMBL1127935, “Synthesis and antiproliferative activity of 15-oxoprostaglandins: Contribution of the -chain enone group to cytotoxicity” (Bioorg Med Chem Lett, 1994).
